Values of other authors as cited in patent US20250367260A1, “TIRZEPATIDE COMPOSITIONS AND PREPARATION METHOD” (Galenicum Health S.L.U., priority 2024, published 2025).

Row | Compound | pKa
1 | O=S(=O)(O)CCCN1CCN(CCO)CC1 [HEPPS, 4-(2-Hydroxyethyl)-1-piperazinepropanesulfonic acid] | ≈ 8.1
2 | O=S(=O)(O)CCN1CCN(CCO)CC1 [HEPES, 4-(2-hydroxyethyl)-1-piperazineethanesulfonic acid] | ≈ 7.5
3 | O=S(=O)(O)CC(O)CN(CCO)CCO (stereo not drawn) [DIPSO, 3-(N,N-Bis[2-hydroxyethyl]amino)-2-hydroxypropanesulfonic acid] | ≈ 7.6

More lines, now with the values ahead:

Row | pKa | Compound
4 | ≈ 7.6 | O=S(=O)(O)CC(O)CNC(CO)(CO)CO (stereo not drawn) [TAPSO, 3-[N-Tris(hydroxymethyl)methylamino]-2-hydroxypropanesulfonic acid]
5 | ≈ 8.2 | O=C(O)CNC(CO)(CO)CO [Tricine, N-tris(hydroxymethyl)methylglycine]
6 | ≈ 7.4 | O=S(=O)(O)CCNC(CO)(CO)CO [TES, N-[Tris(hydroxymethyl)methyl]-2-aminoethanesulfonic acid]
